Data set [1] deals with T1, Neuropeptide Y receptor type 1 (Homo sapiens, UniProt P25929).
T1 sequence (P25929 whole entry): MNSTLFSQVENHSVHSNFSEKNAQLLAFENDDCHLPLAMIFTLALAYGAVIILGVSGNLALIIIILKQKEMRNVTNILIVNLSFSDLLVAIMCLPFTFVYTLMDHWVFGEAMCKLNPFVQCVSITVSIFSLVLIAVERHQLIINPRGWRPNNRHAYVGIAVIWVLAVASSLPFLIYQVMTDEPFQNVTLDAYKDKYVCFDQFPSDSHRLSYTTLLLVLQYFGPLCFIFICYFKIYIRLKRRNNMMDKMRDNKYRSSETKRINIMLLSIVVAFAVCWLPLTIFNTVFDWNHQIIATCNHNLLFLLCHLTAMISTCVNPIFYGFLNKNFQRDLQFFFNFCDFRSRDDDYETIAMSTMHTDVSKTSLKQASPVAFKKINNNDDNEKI
In kind it is cell membranes, Membrane. The note with it: sk-n-mc.

The target in the next data set is Carbonic anhydrase 2 (Homo sapiens, UniProt P00918). The data set is described as follows: DRUGMATRIX: Carbonic Anhydrase II enzyme inhibition (substrate: 4-Nitrophenyl acetate (4-NPA)). In kind it is tissue-based, Erythrocyte. The note with it: erythrocyte; Not Active = under 50% inhibition at 10 µM.
A short description of data set [2]: DRUGMATRIX: Glutamate, AMPA radioligand binding (ligand: [3H] AMPA). In kind it is cell membranes, Rattus norvegicus, Wistar, Cerebral cortex, Membrane. The note with it: Not Active = under 50% inhibition at 10 µM.
Data set [3] in a line: DRUGMATRIX: Leukotriene, BLT (LTB4) radioligand binding (ligand: [3H]LTB4). In kind it is cell membranes, Membrane. The note with it: u-937; Not Active = under 50% inhibition at 10 µM.
For data set [4], the target named is cGMP-specific 3',5'-cyclic phosphodiesterase (Homo sapiens, UniProt O76074). Briefly: DRUGMATRIX: Phosphodiesterase PDE5 enzyme inhibition (substrate: [3H]cGMP + cGMP). In kind it is tissue-based, Platelet. As to conditions: platelet; Not Active = under 50% inhibition at 10 µM.
The target in data set [5] is T2, Amine oxidase [flavin-containing] A (Homo sapiens, UniProt P21397).
T2 sequence (P21397 whole entry): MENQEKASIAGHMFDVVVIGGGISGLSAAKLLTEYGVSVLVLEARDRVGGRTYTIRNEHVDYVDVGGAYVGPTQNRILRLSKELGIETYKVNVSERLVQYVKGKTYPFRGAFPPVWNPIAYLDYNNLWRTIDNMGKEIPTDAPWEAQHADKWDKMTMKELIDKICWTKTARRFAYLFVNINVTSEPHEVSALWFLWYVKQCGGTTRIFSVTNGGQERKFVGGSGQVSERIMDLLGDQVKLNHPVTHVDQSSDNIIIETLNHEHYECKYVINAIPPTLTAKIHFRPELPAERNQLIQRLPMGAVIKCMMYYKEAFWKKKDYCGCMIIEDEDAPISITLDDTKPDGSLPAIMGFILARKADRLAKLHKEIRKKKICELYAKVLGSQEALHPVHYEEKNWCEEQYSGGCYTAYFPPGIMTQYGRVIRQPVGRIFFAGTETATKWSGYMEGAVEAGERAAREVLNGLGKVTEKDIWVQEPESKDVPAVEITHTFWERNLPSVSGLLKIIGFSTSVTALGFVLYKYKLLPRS
Briefly: DRUGMATRIX: Monoamine Oxidase MAO-A enzyme inhibition (substrate: Kynuramine). Also on record: species or system BTI-TN-5B1-4. The note with it: bti-tn-5b1-4; Not Active = under 50% inhibition at 10 µM.

The nature of data set [6]: DRUGMATRIX: Calcium Channel Type L, Benzothiazepine radioligand binding (ligand: [3H] Diltiazem). In kind it is cell membranes, Rattus norvegicus, Wistar, Brain, Membrane. As to conditions: Not Active = under 50% inhibition at 10 µM.
A further data set concerns the target Cytochrome P450 2D6 (Homo sapiens, UniProt P10635). The note with it: bti-tn-5b1-4. Note: in other assays of this panel Not Active means under 50% inhibition at 10 µM.
The target of data set [7] is Protein kinase C alpha type (Homo sapiens, UniProt P17252). In kind it is cell-based. The note with it: sf9.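 Note: inhibition of PKCalpha kinase activity measured in an enzyme assay with histone as the phosphorylation substrate; in other assays of this panel Not Active means under 50% inhibition at 10 µM.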
In data set [8] the target is T3, Cysteinyl leukotriene receptor 1 (Homo sapiens, UniProt Q9Y271). Note: in other assays of this panel Not Active means under 50% inhibition at 10 µM.
T3 sequence (Q9Y271 whole entry): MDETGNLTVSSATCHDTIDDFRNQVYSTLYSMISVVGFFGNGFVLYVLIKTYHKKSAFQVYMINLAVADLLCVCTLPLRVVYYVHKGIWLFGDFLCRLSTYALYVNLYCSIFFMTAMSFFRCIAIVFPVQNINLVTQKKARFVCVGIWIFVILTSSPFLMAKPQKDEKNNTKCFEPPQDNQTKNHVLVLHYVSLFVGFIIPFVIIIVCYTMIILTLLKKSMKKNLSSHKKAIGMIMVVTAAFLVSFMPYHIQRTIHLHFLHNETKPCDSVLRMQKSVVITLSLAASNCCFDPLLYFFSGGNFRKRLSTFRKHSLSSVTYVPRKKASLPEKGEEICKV
In kind it is cell membranes, CHO-K1, Membrane. The note with it: cho-k1.

Another data set concerns the target T4, Cytochrome P450 1A2 (Homo sapiens, UniProt P05177). Note: in other assays of this panel Not Active means under 50% inhibition at 10 µM.
T4 sequence (P05177 whole entry): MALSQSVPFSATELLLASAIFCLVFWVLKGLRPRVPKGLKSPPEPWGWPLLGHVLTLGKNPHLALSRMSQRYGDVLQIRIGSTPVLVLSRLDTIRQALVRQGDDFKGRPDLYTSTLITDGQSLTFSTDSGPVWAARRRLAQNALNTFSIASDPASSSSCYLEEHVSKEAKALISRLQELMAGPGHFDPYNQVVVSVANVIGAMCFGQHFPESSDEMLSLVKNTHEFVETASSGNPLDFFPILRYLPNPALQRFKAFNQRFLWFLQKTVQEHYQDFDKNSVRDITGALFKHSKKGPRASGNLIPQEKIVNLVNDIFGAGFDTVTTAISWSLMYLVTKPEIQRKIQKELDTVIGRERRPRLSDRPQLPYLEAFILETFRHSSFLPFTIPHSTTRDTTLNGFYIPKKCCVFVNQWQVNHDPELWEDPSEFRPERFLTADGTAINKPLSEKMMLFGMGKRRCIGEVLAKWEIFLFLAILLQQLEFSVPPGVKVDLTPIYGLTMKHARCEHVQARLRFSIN
As to conditions: bti-tn-5b1-4.

Cytochrome P450 2D6, sequence (P10635 whole entry): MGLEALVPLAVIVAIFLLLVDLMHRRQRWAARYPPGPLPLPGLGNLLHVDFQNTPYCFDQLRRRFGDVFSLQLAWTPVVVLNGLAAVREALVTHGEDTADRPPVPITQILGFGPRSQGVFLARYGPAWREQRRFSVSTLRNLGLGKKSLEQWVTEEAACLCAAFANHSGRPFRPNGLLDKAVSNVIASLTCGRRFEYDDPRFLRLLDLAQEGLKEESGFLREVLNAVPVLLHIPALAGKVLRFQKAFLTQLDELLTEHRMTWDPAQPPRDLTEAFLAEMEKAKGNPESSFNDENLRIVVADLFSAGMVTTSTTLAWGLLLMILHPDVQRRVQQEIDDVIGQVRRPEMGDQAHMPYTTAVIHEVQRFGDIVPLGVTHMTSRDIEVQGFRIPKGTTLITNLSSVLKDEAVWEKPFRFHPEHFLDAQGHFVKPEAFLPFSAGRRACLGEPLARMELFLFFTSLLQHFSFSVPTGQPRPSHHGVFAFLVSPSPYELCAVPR

In the case of `CC=CC(=O)N(CC)c1ccccc1C`, the IC50 result (in data set [1]; at Carbonic anhydrase 2; in [2]; in data set [3]; in data set [4]; in [5]) was “Not Active” throughout. Further, the IC50 result (in data set [6]; at Cytochrome P450 2D6; in [7]; in [8]; at Cytochrome P450 1A2) was “Not Active” in each case. Further, the Ki entry (in [2]; in data set [3]; in data set [6]; on Cytochrome P450 2D6; on Cytochrome P450 1A2) was “Not Active” throughout.

For the molecule `COc1ccc2c(c1)c(CC(=O)OCC(=O)O)c(C)n2C(=O)c1ccc(Cl)cc1` [ACEMETACIN], the IC50 result (in data set [1]; against Carbonic anhydrase 2; in [2]; in data set [3]; in data set [4]; in data set [5]) was “Not Active” in each case. Further, the IC50 result (in data set [6]; on Cytochrome P450 2D6; in data set [7]; in [8]; against Cytochrome P450 1A2) was “Not Active” each time. Further, the Ki result (in [2]; in [3]; in data set [6]; at Cytochrome P450 2D6; at Cytochrome P450 1A2) was “Not Active” each time.

For `CCCSc1ccc2nc(NC(=O)OC)[nH]c2c1` [ALBENDAZOLE], the IC50 entry (in [1]; against Carbonic anhydrase 2; in data set [2]; in data set [3]; in data set [4]; in [5]) was “Not Active” each time. In addition, the IC50 result (in [6]; at Cytochrome P450 2D6; in data set [7]; in data set [8]; on Cytochrome P450 1A2) was “Not Active” throughout. Also, the Ki entry (in [2]; in data set [3]; in [6]; on Cytochrome P450 2D6; at Cytochrome P450 1A2) was “Not Active” each time.

With `CCc1ccc(C(=O)C(C)CN2CCCCC2)cc1` (stereo unspecified) [EPERISONE], the IC50 entry (in data set [1]; on Carbonic anhydrase 2; in [2]; in data set [3]; in data set [4]; in data set [5]) was “Not Active” in each case. The IC50 result (in data set [6]; in [7]; in data set [8]; against Cytochrome P450 1A2) was “Not Active” each time. The Ki result (in [2]; in data set [3]; in data set [6]; on Cytochrome P450 1A2) was “Not Active” each time.

Turning to `O=P1(NCCCl)OCCCN1CCCl` (stereo unspecified) [IFOSFAMIDE], the IC50 entry (in [1]; at Carbonic anhydrase 2; in data set [2]; in [3]; in data set [4]; in data set [5]) was “Not Active” throughout. Moreover, the IC50 entry in [6], in data set [7] and in data set [8] was “Not Active” each time. The Ki result in data set [2], in data set [3] and in [6] was “Not Active” in each case.

Regarding `Fc1ccc([C@@H]2CCNC[C@H]2COc2ccc3c(c2)OCO3)cc1` [PAROXETINE], the IC50 result (in data set [1]; against Carbonic anhydrase 2; in [2]; in data set [3]; in data set [4]; in data set [5]) was “Not Active” in each case. Further, the IC50 in data set [6] (read-out: IC50) was 373 nM; in data set [7], “Not Active”; in data set [8], “Not Active”; against Cytochrome P450 1A2, “Not Active”. In addition, the Ki entry in [2] was “Not Active”; in data set [3], “Not Active”; in data set [6] (read-out: Ki), 331 nM; at Cytochrome P450 1A2, “Not Active”.

For `CNC(=O)Oc1ccc2c(c1)[C@]1(C)CCN(C)[C@@H]1N2C` [PHYSOSTIGMINE], the IC50 entry (in data set [1]; on Carbonic anhydrase 2; in data set [2]; in data set [3]; in data set [4]; in data set [5]) was “Not Active” throughout. Further, the 50% inhibitory concentration (IC50) entry (in data set [6]; in data set [7]; in data set [8]; against Cytochrome P450 1A2) was “Not Active” each time. The Ki entry (in [2]; in [3]; in data set [6]; on Cytochrome P450 1A2) was “Not Active” in each case.

`COc1ccc(CN(CCN(C)C)c2ccccn2)cc1` [PYRILAMINE]: the IC50 result (in data set [1]; against Carbonic anhydrase 2; in data set [2]; in data set [3]; in data set [4]; in [5]) was “Not Active” throughout. The IC50 entry (in data set [6]; in [7]; in data set [8]; on Cytochrome P450 1A2) was “Not Active” each time. In addition, the Ki result (in [2]; in data set [3]; in [6]; on Cytochrome P450 1A2) was “Not Active” throughout.

By IC50 is commonly meant the midpoint of a concentration-inhibition curve. In general, Ki refers to the equilibrium dissociation constant of an inhibitor or competing ligand from its target.

(Values after ChEMBL document CHEMBL1909046, “DrugMatrix in vitro pharmacology data”.)
